Assays:
D(1A) dopamine receptor = D(1A) dopamine receptor (Homo sapiens, UniProt P21728); format: functional, cell-based
[1] = target: Glutamate receptor ionotropic, NMDA 1 (Rattus norvegicus, UniProt P35439)
Glucocorticoid receptor = target: T1, Glucocorticoid receptor (Homo sapiens, UniProt P04150)
T1 sequence (P04150 whole entry): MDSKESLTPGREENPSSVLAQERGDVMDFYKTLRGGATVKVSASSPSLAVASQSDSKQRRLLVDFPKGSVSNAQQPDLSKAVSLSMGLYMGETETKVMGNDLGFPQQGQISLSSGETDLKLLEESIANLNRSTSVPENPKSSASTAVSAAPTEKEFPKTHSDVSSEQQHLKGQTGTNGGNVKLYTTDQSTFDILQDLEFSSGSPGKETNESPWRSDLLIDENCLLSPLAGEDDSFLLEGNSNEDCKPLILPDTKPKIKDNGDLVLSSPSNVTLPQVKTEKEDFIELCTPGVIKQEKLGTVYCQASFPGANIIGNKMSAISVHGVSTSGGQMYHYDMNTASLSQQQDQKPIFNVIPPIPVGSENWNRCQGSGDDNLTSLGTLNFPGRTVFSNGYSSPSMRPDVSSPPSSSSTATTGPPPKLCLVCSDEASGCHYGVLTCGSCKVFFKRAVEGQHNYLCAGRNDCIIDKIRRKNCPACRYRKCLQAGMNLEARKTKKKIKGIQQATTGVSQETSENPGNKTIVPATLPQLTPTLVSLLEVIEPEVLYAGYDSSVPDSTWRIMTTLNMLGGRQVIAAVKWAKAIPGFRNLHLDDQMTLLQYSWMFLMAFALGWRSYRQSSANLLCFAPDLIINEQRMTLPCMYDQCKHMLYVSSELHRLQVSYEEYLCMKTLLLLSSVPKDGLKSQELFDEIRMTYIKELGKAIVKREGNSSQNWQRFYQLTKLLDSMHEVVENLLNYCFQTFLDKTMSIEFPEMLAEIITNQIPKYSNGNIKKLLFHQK

[2] = target: Neuronal acetylcholine receptor subunit alpha-4 (Homo sapiens, UniProt P43681)
Chain of Neuronal acetylcholine receptor subunit alpha-4 (P43681 whole entry): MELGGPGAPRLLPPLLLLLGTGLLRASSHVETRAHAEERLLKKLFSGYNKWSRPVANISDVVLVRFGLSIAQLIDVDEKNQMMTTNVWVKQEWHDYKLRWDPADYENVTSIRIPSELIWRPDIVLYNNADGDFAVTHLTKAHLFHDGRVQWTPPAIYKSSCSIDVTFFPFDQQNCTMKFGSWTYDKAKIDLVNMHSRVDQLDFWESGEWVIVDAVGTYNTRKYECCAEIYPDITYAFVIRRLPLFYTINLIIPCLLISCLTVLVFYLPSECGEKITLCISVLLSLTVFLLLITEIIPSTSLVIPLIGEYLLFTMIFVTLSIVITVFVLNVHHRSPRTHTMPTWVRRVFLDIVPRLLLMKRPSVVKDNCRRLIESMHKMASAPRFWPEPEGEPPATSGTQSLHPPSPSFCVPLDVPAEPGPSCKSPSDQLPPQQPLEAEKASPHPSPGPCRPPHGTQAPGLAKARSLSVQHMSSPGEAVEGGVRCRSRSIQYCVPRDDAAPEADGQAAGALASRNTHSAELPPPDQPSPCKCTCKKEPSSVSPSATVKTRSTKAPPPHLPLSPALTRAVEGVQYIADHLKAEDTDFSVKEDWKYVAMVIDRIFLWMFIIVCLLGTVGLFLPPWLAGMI

Histamine H3 receptor = Histamine H3 receptor (Homo sapiens, UniProt Q9Y5N1)
Chain of Histamine H3 receptor (Q9Y5N1 whole entry): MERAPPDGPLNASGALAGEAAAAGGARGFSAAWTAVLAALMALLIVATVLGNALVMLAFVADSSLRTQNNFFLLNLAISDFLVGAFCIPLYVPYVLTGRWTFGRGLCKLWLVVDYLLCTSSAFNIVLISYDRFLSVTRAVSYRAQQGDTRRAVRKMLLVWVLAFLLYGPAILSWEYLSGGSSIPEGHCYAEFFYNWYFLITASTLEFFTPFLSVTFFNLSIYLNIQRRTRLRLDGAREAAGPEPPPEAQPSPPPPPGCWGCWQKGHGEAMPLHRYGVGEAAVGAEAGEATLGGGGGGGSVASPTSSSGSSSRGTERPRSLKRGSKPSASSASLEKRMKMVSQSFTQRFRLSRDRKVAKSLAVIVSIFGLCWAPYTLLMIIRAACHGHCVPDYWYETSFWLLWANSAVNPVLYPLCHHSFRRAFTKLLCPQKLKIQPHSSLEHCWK

Progesterone receptor = target: T2, Progesterone receptor (Homo sapiens, UniProt P06401); format: functional
T2 sequence (P06401 whole entry): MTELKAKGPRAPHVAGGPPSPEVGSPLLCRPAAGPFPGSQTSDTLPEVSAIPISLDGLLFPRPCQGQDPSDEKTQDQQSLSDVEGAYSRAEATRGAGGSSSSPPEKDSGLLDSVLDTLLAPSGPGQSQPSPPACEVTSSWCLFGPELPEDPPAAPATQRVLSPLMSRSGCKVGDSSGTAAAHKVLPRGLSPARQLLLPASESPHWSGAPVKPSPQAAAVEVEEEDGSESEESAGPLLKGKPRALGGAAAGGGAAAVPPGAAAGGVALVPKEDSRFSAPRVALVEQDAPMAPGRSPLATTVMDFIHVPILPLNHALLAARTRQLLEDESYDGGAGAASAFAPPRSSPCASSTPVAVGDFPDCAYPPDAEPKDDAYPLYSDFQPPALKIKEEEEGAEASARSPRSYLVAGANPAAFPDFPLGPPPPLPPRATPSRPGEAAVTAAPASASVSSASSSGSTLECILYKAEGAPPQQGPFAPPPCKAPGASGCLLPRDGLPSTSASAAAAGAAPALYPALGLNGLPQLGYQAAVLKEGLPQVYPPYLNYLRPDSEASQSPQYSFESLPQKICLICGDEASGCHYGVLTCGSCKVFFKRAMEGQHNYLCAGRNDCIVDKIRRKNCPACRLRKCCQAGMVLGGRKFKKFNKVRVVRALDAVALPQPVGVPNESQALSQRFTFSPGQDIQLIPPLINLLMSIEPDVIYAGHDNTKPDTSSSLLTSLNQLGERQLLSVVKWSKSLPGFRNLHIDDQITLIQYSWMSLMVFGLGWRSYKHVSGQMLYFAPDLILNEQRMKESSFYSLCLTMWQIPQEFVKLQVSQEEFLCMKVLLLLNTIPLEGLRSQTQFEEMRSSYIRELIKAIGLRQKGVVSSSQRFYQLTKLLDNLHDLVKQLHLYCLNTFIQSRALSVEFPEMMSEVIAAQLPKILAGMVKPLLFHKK

[3] = target: T3, 5-hydroxytryptamine receptor 1A (Homo sapiens, UniProt P08908); format: functional, cell-based
T3 sequence (P08908 whole entry): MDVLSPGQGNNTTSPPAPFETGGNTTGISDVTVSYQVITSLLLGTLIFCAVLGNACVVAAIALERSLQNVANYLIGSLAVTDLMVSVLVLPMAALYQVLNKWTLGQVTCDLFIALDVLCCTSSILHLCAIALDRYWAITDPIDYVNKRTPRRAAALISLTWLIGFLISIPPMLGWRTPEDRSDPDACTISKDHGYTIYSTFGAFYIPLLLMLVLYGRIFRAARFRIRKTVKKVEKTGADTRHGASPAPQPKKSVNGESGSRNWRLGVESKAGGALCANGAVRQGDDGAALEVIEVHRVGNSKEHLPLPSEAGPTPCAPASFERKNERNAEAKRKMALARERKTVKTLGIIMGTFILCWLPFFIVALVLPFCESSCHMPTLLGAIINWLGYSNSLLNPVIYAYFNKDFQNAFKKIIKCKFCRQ

[4] = target: 3',5'-cyclic-AMP phosphodiesterase 4D (Homo sapiens, UniProt Q08499); format: functional
Chain of 3',5'-cyclic-AMP phosphodiesterase 4D (Q08499 whole entry): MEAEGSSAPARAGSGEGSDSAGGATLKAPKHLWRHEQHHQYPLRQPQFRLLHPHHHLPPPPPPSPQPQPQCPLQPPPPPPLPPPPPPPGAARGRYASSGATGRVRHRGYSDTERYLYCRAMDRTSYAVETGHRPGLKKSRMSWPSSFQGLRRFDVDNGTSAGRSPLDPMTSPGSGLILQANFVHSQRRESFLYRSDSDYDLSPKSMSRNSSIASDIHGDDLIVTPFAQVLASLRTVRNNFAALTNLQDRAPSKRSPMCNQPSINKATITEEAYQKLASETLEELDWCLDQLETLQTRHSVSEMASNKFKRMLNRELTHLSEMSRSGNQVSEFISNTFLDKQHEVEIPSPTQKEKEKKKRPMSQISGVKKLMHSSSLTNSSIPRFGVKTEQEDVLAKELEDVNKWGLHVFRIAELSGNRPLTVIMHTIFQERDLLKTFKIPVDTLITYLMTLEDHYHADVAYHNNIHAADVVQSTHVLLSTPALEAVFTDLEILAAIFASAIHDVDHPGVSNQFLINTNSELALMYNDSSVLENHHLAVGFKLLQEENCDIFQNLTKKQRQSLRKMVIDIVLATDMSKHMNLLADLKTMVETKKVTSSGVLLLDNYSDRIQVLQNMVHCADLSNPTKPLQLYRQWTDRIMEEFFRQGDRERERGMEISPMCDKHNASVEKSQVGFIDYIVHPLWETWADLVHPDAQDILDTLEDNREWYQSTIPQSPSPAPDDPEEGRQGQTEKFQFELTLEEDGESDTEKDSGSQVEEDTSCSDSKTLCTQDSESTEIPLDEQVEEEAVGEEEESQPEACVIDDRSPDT

[5] = target: T4, 5-hydroxytryptamine receptor 2C (Homo sapiens, UniProt P28335)
T4 sequence (P28335 whole entry): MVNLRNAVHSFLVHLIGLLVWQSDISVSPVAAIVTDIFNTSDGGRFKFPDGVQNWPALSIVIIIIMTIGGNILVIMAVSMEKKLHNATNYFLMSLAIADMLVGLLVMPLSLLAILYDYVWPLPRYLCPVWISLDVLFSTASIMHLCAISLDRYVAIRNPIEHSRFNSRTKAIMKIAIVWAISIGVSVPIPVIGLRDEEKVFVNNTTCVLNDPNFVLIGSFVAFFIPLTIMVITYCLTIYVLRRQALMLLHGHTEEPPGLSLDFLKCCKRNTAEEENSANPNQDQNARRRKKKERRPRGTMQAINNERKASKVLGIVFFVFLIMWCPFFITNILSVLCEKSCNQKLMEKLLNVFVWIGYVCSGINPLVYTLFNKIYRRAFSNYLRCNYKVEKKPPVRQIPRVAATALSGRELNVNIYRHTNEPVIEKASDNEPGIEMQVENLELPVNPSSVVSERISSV

[6] = target: Gamma-aminobutyric acid receptor subunit alpha-1 (Rattus norvegicus, UniProt P62813)
Chain of Gamma-aminobutyric acid receptor subunit alpha-1 (P62813 whole entry): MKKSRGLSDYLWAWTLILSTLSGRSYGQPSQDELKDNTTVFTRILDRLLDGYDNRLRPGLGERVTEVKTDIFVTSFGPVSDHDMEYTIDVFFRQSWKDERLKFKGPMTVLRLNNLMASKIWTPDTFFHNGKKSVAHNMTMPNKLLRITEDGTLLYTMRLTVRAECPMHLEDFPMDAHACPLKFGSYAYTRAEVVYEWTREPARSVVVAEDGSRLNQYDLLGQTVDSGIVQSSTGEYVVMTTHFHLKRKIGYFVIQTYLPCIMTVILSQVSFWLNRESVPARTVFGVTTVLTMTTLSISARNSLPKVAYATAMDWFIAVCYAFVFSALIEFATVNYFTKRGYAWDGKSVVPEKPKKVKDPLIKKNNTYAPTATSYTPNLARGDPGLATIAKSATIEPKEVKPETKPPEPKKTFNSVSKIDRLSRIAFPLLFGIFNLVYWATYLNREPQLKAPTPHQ
Also: assay procedure not described here.

Chain of D(1A) dopamine receptor (P21728 whole entry): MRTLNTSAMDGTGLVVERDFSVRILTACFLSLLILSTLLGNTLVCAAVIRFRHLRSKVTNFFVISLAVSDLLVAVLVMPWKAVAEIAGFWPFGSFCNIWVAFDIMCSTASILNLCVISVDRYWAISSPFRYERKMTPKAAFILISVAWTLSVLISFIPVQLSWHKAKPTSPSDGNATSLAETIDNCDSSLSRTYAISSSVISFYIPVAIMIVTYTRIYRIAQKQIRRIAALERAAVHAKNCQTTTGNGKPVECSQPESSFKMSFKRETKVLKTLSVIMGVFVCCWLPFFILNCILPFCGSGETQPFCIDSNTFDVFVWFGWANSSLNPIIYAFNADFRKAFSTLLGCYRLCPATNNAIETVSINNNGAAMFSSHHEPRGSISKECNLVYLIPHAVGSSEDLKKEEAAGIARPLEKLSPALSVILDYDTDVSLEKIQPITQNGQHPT

| Structure (SMILES) | AC50 (D(1A) dopamine receptor) | AC50 [1] | AC50 (Glucocorticoid receptor) | AC50 [2] | AC50 (Histamine H3 receptor) | AC50 (Progesterone receptor) | AC50 [3] | AC50 [4] | AC50 [5] | AC50 [6] |
| --- | --- | --- | --- | --- | --- | --- | --- | --- | --- | --- |
| C[N+]12CCC(CC1)C(OC(=O)C(O)(c1ccccc1)c1ccccc1)C2 (stereo not drawn) | > 30 µM | > 30 µM | > 30 µM | > 30 µM | > 30 µM | > 30 µM | > 30 µM | > 30 µM | > 30 µM |  |
| CO/N=C(\C(=O)N[C@@H]1C(=O)N2C(C(=O)O)=CCS[C@H]12)c1csc(N)n1 [CEFTIZOXIME] | > 30 µM |  | > 30 µM | > 30 µM | > 30 µM | > 30 µM | > 30 µM | > 30 µM |  |  |
| CO/N=C(\C(=O)N[C@@H]1C(=O)N2C(C(=O)O)=C(CSc3nc(=O)c(=O)[nH]n3C)CS[C@H]12)c1csc(N)n1 [CEFTRIAXONE] | > 30 µM | > 30 µM | > 30 µM | > 30 µM | > 30 µM | > 30 µM | > 30 µM | > 30 µM | > 30 µM |  |
| COc1cc(N)c(Cl)cc1C(=O)NC1CCN(CCCOc2ccc(F)cc2)CC1OC (stereo not drawn) [CISAPRIDE] | > 10 µM | > 10 µM | > 30 µM | > 10 µM | > 10 µM |  | > 10 µM | > 30 µM |  | > 10 µM |
| CCOC(=O)C(C)(C)Oc1ccc(Cl)cc1 [CLOFIBRATE] | > 10 µM | > 10 µM | > 30 µM | > 10 µM | > 10 µM |  | > 10 µM | > 30 µM | > 30 µM | > 10 µM |
| CCCCOc1ccc(C(=O)CCN2CCCCC2)cc1 [DYCLONINE] | > 10 µM | > 10 µM | > 30 µM | > 10 µM | 3.9 µM |  | > 10 µM | 11 µM | > 10 µM | > 10 µM |
| CCc1cc2c(s1)-n1c(C)nnc1CN=C2c1ccccc1Cl [ETIZOLAM] | > 30 µM | > 30 µM | > 30 µM | > 30 µM | > 30 µM | > 30 µM | > 30 µM | 19 µM | > 30 µM |  |
| O=C1Nc2ccc(Cl)cc2C(c2ccccc2Cl)=NC1O (stereo not drawn) [LORAZEPAM] | > 30 µM | > 10 µM | > 30 µM | > 10 µM | > 10 µM |  | > 10 µM | > 30 µM | > 30 µM | > 10 µM |
| COc1ccc2cc(CCC(C)=O)ccc2c1 [NABUMETONE] | > 30 µM | > 10 µM | > 10 µM | > 10 µM |  | > 10 µM | > 10 µM | > 30 µM | > 30 µM | > 10 µM |
